This note sets out measurements from patent publication US20230348426A1, “OXOPYRROLIDINE FPR2 AGONISTS” (Bristol-Myers Squibb Company, priority 2020, published 2023).

The target in one test is human FPR2 (Homo sapiens (Human), UniProt P25090). Nature of the test: FPR2 cyclic adenosine monophosphate (cAMP) assay. The conditions noted are these: CHO cells overexpressing human FPR2; forskolin 5 µM; inhibition of cAMP production; read-out: hFPR2 cAMP2 EC50. The test is classed as cell-based. Put shortly:
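Inhibition of forskolin-driven (5 µM) cAMP, with 200 µM IBMX, measured in human FPR2-expressing CHO cells, 2,000 per well, 30 min at room temperature; compounds tested 0.020 nM to 100 µM in 1% DMSO. HTRF 665/590 ratio converted to cAMP via calibration curve, then 4-parameter fit.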
In general terms: Cyclic AMP is a second messenger, typically raised through Gs and lowered through Gi signalling.

Another test addresses human FPR1 (Homo sapiens (Human), UniProt P21462). Nature of the test: FPR1 cyclic adenosine monophosphate (cAMP) assay. The test is classed as cell-based. The note with it: CHO cells overexpressing human FPR1; forskolin 10 µM; inhibition of cAMP production; read-out: hFPR1 cAMP EC50. In outline:
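Human FPR1-expressing CHO cells were used at 4,000 per well, with compound at 0.020 nM–100 µM in 1% DMSO. Potency came from a 4-parameter logistic fit.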

Each structure is given as a SMILES string. pEC50: −log10 of the molar value. Some results are limits rather than exact numbers.

Chain of human FPR2 (P25090 whole entry): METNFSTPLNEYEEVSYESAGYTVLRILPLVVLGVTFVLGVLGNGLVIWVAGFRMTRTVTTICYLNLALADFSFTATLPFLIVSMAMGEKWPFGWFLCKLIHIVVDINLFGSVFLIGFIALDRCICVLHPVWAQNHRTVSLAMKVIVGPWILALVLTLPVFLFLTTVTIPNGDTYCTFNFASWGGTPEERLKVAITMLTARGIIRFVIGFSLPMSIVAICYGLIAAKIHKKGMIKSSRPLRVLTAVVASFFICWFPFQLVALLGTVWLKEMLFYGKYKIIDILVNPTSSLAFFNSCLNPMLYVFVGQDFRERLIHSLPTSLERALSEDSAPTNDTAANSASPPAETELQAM
Chain of human FPR1 (P21462 whole entry): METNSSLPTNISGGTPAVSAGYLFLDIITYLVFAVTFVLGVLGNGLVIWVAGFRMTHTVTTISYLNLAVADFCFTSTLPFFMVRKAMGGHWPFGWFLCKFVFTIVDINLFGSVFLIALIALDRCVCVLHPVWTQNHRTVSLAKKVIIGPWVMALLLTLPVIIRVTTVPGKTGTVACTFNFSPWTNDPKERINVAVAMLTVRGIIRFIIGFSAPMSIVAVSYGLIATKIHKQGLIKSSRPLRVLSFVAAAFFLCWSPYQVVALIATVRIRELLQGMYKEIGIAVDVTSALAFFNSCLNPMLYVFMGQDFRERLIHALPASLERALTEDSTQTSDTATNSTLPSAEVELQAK

As usually defined, the pEC50 is −log10 of the EC50, conventionally taken in molar units. For `COc1cc(F)c([C@H]2[C@H](NC(=O)c3ccc(OC(F)F)cc3)C(=O)N(c3cccc(C4CCCN(C)C4)n3)[C@H]2C)c(F)c1` (stereo partly drawn) [Example 512], the results for the negative-log EC50 (pEC50) at human FPR2 and on human FPR1 were 8.43 and 5.68, respectively.
As to `COc1cc(F)c([C@H]2[C@H](NC(=O)c3ccc(OC(F)F)cc3)C(=O)N(c3cccc(C4CCCN(C)C4)n3)[C@H]2C)c(F)c1` (stereo partly drawn) [Example 513], the negative-log EC50 (pEC50) on human FPR2 was 8.62; on human FPR1, 5.82.
Regarding `COc1cc(F)c([C@@H]2CN(c3cncn(C4CCN(C)C4)c3=O)C(=O)[C@H]2NC(=O)c2ccc(Cl)cc2)c(F)c1` (stereo partly drawn) [Example 514], the negative logarithm of the EC50 (pEC50) at human FPR2 is 8.59; at human FPR1, 6.57.
Consider `COc1cc(F)c([C@H]2[C@H](NC(=O)c3ccc(OC(F)F)cc3)C(=O)N(c3cccc(C4CCCN(CCO)C4)n3)[C@H]2C)c(F)c1` (stereo partly drawn) [Example 515], for which the figures for the pEC50 on human FPR2 and on human FPR1 were 8.68 and 5.66, respectively.
The matching figures for `COc1cc(F)c([C@H]2[C@H](NC(=O)c3ccc(OC(F)F)cc3)C(=O)N(c3cccc(C4CCCN(CCO)C4)n3)[C@H]2C)c(F)c1` (stereo partly drawn) [Example 516]: 8.89 and 5.77.
The matching figures for `COc1cc(F)c([C@@H]2CN(c3cncn(C(CO)C(F)(F)F)c3=O)C(=O)[C@H]2NC(=O)c2ccc(Cl)cc2)c(F)c1` (stereo partly drawn) [Example 517]: 8.55 and 5.74.
As to `COc1cc(F)c([C@@H]2CN(c3cncn(C(CO)C(F)(F)F)c3=O)C(=O)[C@H]2NC(=O)c2ccc(Cl)cc2)c(F)c1` (stereo partly drawn) [Example 518], the pEC50 at human FPR2 is 8.70; at human FPR1 it was 5.48.
The matching figures for `COc1cc(F)c([C@@H]2CN(c3cccn4ccnc34)C(=O)[C@H]2NC(=O)c2ccc(Cl)cc2)c(F)c1` [Example 519]: 8.51 and 6.32.
As for `CCn1cnc(C)c(N2C[C@@H](c3c(F)cc(OC)cc3F)[C@H](NC(=O)c3ccc(Cl)cc3)C2=O)c1=O` [Example 520], the negative logarithm of the EC50 (pEC50) on human FPR2 was 8.31; on human FPR1, 5.89.
The matching figures for `COCCn1cnc(C)c(N2C[C@@H](c3c(F)cc(OC)cc3F)[C@H](NC(=O)c3ccc(Cl)cc3)C2=O)c1=O` [Example 521]: 8.05 and 6.48.
Consider `COc1cc(F)c([C@@H]2CN(c3c(C)ncn(CC4(C)COC4)c3=O)C(=O)[C@H]2NC(=O)c2ccc(Cl)cc2)c(F)c1` [Example 522], for which the pEC50 on human FPR2 is 8.27; at human FPR1 it was under 5.30.
In the case of `COc1cc(F)c([C@H]2[C@H](NC(=O)c3ccc(OC(F)F)cc3)C(=O)N(c3cccc(C4CCN(C)CC4)n3)[C@H]2C)c(F)c1` [Example 523], the pEC50 is 8.85 at human FPR2 and 5.44 on human FPR1.
The matching figures for `COc1cc(F)c([C@H]2[C@H](NC(=O)c3ccc(OC(F)F)cc3)C(=O)N(c3cccc(C4CCN(CCO)CC4)n3)[C@H]2C)c(F)c1` [Example 524]: 9.10 and 5.85.
The matching figures for `COc1cc(F)c([C@@H]2CN(c3cccc(C4CCN(C)CC4)n3)C(=O)[C@H]2NC(=O)c2ccc(OC(F)F)cc2)c(F)c1` [Example 525]: 8.85 and 6.38.
On to `COc1cc(F)c([C@H]2[C@H](NC(=O)c3ccc(OC(F)F)cc3)C(=O)N(c3cccc(N4C[C@@H]5C[C@H]4CN5C)n3)[C@H]2C)c(F)c1` [Example 526], for which the values for the pEC50 on human FPR2 and on human FPR1 were 8.96 and 5.64, respectively.
On to `COc1cc(F)c([C@@H]2CN(c3cccc(C4CCN(CCO)CC4)n3)C(=O)[C@H]2NC(=O)c2ccc(OC(F)F)cc2)c(F)c1` [Example 527], for which the pEC50 on human FPR2 was 8.89; at human FPR1, 6.11.
As for `COc1cc(F)c([C@H]2[C@H](NC(=O)c3ccc(OC(F)F)cc3)C(=O)N(c3cccc(C4CCNCC4)n3)[C@H]2C)c(F)c1` [Example 528], the pEC50 was 9.70 on human FPR2 and 6.22 on human FPR1.
The corresponding values for `COc1cc(C2CCNCC2)nc(N2C(=O)[C@@H](NC(=O)c3ccc(OC(F)F)cc3)[C@H](c3c(F)cc(OC)cc3F)[C@@H]2C)c1` [Example 529] are 8.17 and under 5.30.
On to `COc1cc(F)c([C@@H]2CN(c3c(C)ccn(C4CCNC4)c3=O)C(=O)[C@H]2NC(=O)c2ccc(Cl)cc2)c(F)c1` (stereo partly drawn) [Example 530], for which the negative logarithm of the EC50 (pEC50) at human FPR2 is 8.51; on human FPR1, 6.17.
For `COc1cc(F)c([C@@H]2CN(c3cccc(N4C[C@@H]5C[C@H]4CN5C)n3)C(=O)[C@H]2NC(=O)c2ccc(OC(F)F)cc2)c(F)c1` [Example 531], the figures for the negative-log EC50 (pEC50) on human FPR2 and on human FPR1 were 8.80 and 5.49, respectively.
Take `COc1cc(F)c([C@@H]2CN(c3ncn(CC(C)C)n3)C(=O)[C@H]2NC(=O)c2ccc(Cl)cc2)c(F)c1` [Example 532]: the pEC50 is 8.64 on human FPR2 and 6.20 on human FPR1.
`COc1cc(F)c([C@@H]2CN(c3c(C)ncn(CC(F)F)c3=O)C(=O)[C@H]2NC(=O)c2ccc(Cl)cc2)c(F)c1` [Example 533]: the results for the pEC50 at human FPR2 and at human FPR1 were 8.40 and 6.05, respectively.
Take `COc1cc(C2CCNCC2)nc(N2C[C@@H](c3c(F)cc(OC)cc3F)[C@H](NC(=O)c3ccc(OC(F)F)cc3)C2=O)c1` [Example 534]: the pEC50 is 8.47 on human FPR2 and under 5.30 on human FPR1.
The matching figures for `COc1cc(F)c([C@@H]2CN(c3nc(OCC4CCOC4)ccc3F)C(=O)[C@H]2NC(=O)c2ccc(OC(F)F)cc2)c(F)c1` (stereo partly drawn) [Example 535]: 9.00 and 6.70.
Turning to `COc1cc(F)c([C@@H]2CN(c3cccc(C4CCN(C)CC4)n3)C(=O)[C@H]2NC(=O)c2ccc(OC(F)F)cc2)c(F)c1` [Example 536], the negative logarithm of the EC50 (pEC50) is 8.68 on human FPR2 and 6.19 at human FPR1.
The corresponding values for `COc1cc(F)c([C@H]2[C@H](NC(=O)c3ccc(OC(F)F)cc3)C(=O)N(c3cccc(C4CCN(CC(F)F)CC4)n3)[C@H]2C)c(F)c1` [Example 537] are 8.00 and 7.46.
Consider `COc1cc(C2CCN(C)CC2)nc(N2C(=O)[C@@H](NC(=O)c3ccc(OC(F)F)cc3)[C@H](c3c(F)cc(OC)cc3F)[C@@H]2C)c1` [Example 538], for which the pEC50 at human FPR2 was 8.89; at human FPR1, 5.70.
The corresponding values for `COc1cc(C2CCOCC2)nc(N2C(=O)[C@@H](NC(=O)c3ccc(OC(F)F)cc3)[C@H](c3c(F)cc(OC)cc3F)[C@H]2C)c1` [Example 539] are 8.17 and 6.33.
For the compound `COc1cc(F)c([C@@H]2CN(c3ncn(CC(F)F)n3)C(=O)[C@H]2NC(=O)c2ccc(Cl)cc2)c(F)c1` [Example 541], the pEC50 on human FPR2 is 7.70; at human FPR1, 6.09.
The matching figures for `COc1cc(F)c([C@@H]2CN(c3cncn(C4CCOCC4)c3=O)C(=O)[C@H]2NC(=O)c2ccc(Cl)cc2)c(F)c1` [Example 542]: 8.24 and 5.92.
The matching figures for `COc1cc(F)c([C@@H]2CN(c3cncnc3OC3CCOCC3)C(=O)[C@H]2NC(=O)c2ccc(Cl)cc2)c(F)c1` [Example 543]: 8.16 and 5.72.
Consider `COc1cc(F)c([C@H]2[C@H](NC(=O)c3ccc(Cl)cc3)C(=O)N(c3cccc(N4CC[C@@H](O)C4)n3)[C@@H]2C)c(F)c1` [Example 545], for which the pEC50 at human FPR2 was 8.22; at human FPR1, 6.48.
With `COc1cc(F)c([C@@H]2CN(c3nccn(C4CC4)c3=O)C(=O)[C@H]2NC(=O)c2ccc(Cl)cc2)c(F)c1` [Example 546], the negative logarithm of the EC50 (pEC50) at human FPR2 was 8.68; on human FPR1, 5.74.
